Results published in PubChem BioAssay AID2060605 (Molecular Pharmacology Branch, DTP, NCI, 2025).
pIC50: −log10 of the molar value. Where “and” joins values, the source holds several entries; their conditions need not be identical. Equal entries are not always repeated. One block for each molecule: values may come before it.

System: 947758-054-R-J2-PDC spheroid growth, percent test/control
Test: Anticancer human tumor 947758-054-R-J2-PDC patient-derived colon adenocarcinoma cell line growth inhibition [CLK]
Settings: spheroids with HUVEC and MSC; for viability, T/C: stronger effect = lower value
Text: A high-throughput screen of multi-cell type tumor spheroids was designed to identify active combinations of […] and targeted small molecules. Complex spheroids include a stromal component modeled by human endothelial cells (HUVEC) and fibroblasts modeled by human mesenchymal stem cells (MSCs). The concentration ranges selected for each drug and investigational agent were based upon clinically achievable concentrations if the clinical Cmax of the agent was known.
Compounds. The drugs and investigational agents: cirtuvivint (SM08502; NSC835563), CC-671 (NSC850746), vemurafenib (NSC761431), tapotoclax (NSC804041), sotorasib (NSC818433), adagrasib (NSC831453), MRTX-1133 (NSC836407), BAY2416964 (NSC825713), copanlisib (NSC816437), inavolisib (NSC800729), abemaciclib (NSC768073), osimertinib (NSC779217), entinostat (NSC756642), eltanexor (KPT-8602, NSC794443), venetoclax (NSC766270), ceralasertib (NSC777638), bortezomib (NSC756655), olaparib (NSC753686), talazoparib (NSC767125), alisertib (NSC759677), peposertib (NSC802822), gemcitabine (NSC613327), 5-fluorouracil (NSC19893), SN-38 (NSC673596), oxaliplatin (NSC266046), paclitaxel (NSC125973), and doxorubicin (NSC123127), were obtained from the National Cancer Institute (NCI) Developmental Therapeutics Program Chemical Repository. The FDA-approved anticancer drug set is available from the Developmental Therapeutics Program at https://dtp.cancer.gov/organization/dscb/obtaining/available plates.htm. […] The stock solutions were prepared in dimethyl sulfoxide (DMSO, Sigma-Aldrich, St. Louis, MO, cat. D2650), except for the platinum complexes which were prepared in saline (Quality Biological, Gaithersburg, MD, cat. 114-055-101), at 800-fold the tested concentration and stored at -70 degrees C prior to their use. All drugs and investigational agents were tested over a range starting from a high concentration at or near the clinical Cmax and decreasing in half-log increments. If the clinical Cmax for an agent had not been determined, the highest concentration tested was 10 microM.
Cell Culture. All cells were maintained in an incubator at 37 degrees C and 5% CO2 with 95% humidity. The PDC lines were cultured according to standard operating procedures established by the NCI PDMR. Briefly, all PDCs were thawed and cultured in Matrigel-coated flasks prepared with a working solution of 1X Ham's F-12 nutrient mix, without supplementation (Invitrogen, Waltham, MA, cat. 11765054), 100 U/mL penicillin-streptomycin (Invitrogen, cat. 15140122), and 2.5% Matrigel (Corning Inc., Corning, NY, cat. 354248) for the first three passages. The 947758-054-R-J2-PDC line was cultured in 6B/Colon 1A media, which includes advanced DMEM/F-12 (Thermo Fisher Scientific, cat. 12634028), 10 mM HEPES (Thermo Fisher Scientific, cat. 15630080), 1X GlutaMAX supplement (Thermo Fisher Scientific, cat. 35050061), 0.1 mg/mL primocin (InvivoGen, cat. ant-pm-2), 10% defined fetal bovine serum, heat inactivated (HyClone Laboratories Inc., cat. SH30070.03HI), 1.25 mM N-Acetyl-L-cysteine (Sigma-Aldrich, cat. A9165), 10 mM nicotinamide (Sigma-Aldrich, cat. N0636), 1X B-27 supplement (Thermo Fisher Scientific, cat. 17504044), 1X N-2 supplement (Thermo Fisher Scientific, cat. 17502048), and 10 microM Y-27632 dihydrochloride (Tocris Bioscience, cat. 1254). The 876862-298-R-J1-PDC was cultured in 6E media, which includes all 6B/Colon 1A media components plus 50% L-WRN conditioned media (ATCC, cat. CRL-3276), 50 ng/mL recombinant human EGF recombinant protein (hEGF; Thermo Fisher Scientific, cat. PHG0311), 10 ng/mL recombinant human fibroblast growth factor 10 (hGFG-10; PeproTech, cat. 100-26), 1 ng/mL recombinant human fibroblast growth factor 2 (hFGF-2; PeproTech, cat. 100-18B), and 1 µM prostaglandin E2 (PGE2; Tocris, cat. 2296). The 227483-062-R1-J1-PDC line was cultured in Panc media, containing all 6E components except hFGF-2, with the addition of 500 nM SB-431542 (Selleckchem, cat. S1067) and 10 nM gastrin (Tocris, cat. 3006). […]
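Note: spheroids exposed to compounds for one week before readout.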
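Throughout, for viability, T/C: 100% = DMSO vehicle control wells.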

pIC50 (curve of first compound, second compound 0.0316 µM): 5.54
pIC50 (curve of first compound, second compound 0.1 µM): 5.49
pIC50 (curve of first compound, second compound 0.316 µM): 5.61
pIC50 (curve of first compound, second compound 1 µM): 5.64
pIC50 (curve of first compound, second compound 3.16 µM): 6.12
pIC50 (curve of first compound, second compound 10 µM): 7.45
SMILES: CC1(C)CCC(CN2CCN(c3ccc(C(=O)NS(=O)(=O)c4ccc(NCC5CCOCC5)c([N+](=O)[O-])c4)c(Oc4cnc5[nH]ccc5c4)c3)CC2)=C(c2ccc(Cl)cc2)C1 + CNC(=O)c1ccc(Nc2nc(OC3CCCC3)c3c(-c4ccc5nc(C)oc5c4)c[nH]c3n2)c(OC)c1
viability, T/C (second compound 0.0316 µM, first compound 0.0316 µM): 105%
viability, T/C (second compound 0.0316 µM, first compound 0.1 µM): 80.1%
viability, T/C (second compound 0.0316 µM, first compound 0.316 µM): 93.6%
viability, T/C (second compound 0.0316 µM, first compound 1 µM): 94.4%
viability, T/C (second compound 0.0316 µM, first compound 3.16 µM): 46.3%
viability, T/C (second compound 0.0316 µM, first compound 10 µM): 1.33%
viability, T/C (second compound 0.1 µM, first compound 0.0316 µM): 104%
viability, T/C (second compound 0.1 µM, first compound 0.1 µM): 113%
viability, T/C (second compound 0.1 µM, first compound 0.316 µM): 82.1%
viability, T/C (second compound 0.1 µM, first compound 1 µM): 94%
viability, T/C (second compound 0.1 µM, first compound 3.16 µM): 47.8%
viability, T/C (second compound 0.1 µM, first compound 10 µM): 0.8%
viability, T/C (second compound 0.316 µM, first compound 0.0316 µM): 105%
viability, T/C (second compound 0.316 µM, first compound 0.1 µM): 85.2%
viability, T/C (second compound 0.316 µM, first compound 0.316 µM): 70.7%
viability, T/C (second compound 0.316 µM, first compound 1 µM): 76.8%
viability, T/C (second compound 0.316 µM, first compound 3.16 µM): 46.9%
viability, T/C (second compound 0.316 µM, first compound 10 µM): 1.58%
viability, T/C (second compound 1 µM, first compound 0.0316 µM): 64.8%
viability, T/C (second compound 1 µM, first compound 0.1 µM): 56.7%
viability, T/C (second compound 1 µM, first compound 0.316 µM): 55.8%
viability, T/C (second compound 1 µM, first compound 1 µM): 68.5%
viability, T/C (second compound 1 µM, first compound 3.16 µM): 45.8%
viability, T/C (second compound 1 µM, first compound 10 µM): 0.6%
viability, T/C (second compound 3.16 µM, first compound 0.0316 µM): 59.1%
viability, T/C (second compound 3.16 µM, first compound 0.1 µM): 33.4%
viability, T/C (second compound 3.16 µM, first compound 0.316 µM): 63.3%
viability, T/C (second compound 3.16 µM, first compound 1 µM): 48.4%
viability, T/C (second compound 3.16 µM, first compound 3.16 µM): 26.5%
viability, T/C (second compound 3.16 µM, first compound 10 µM): 2.21%
viability, T/C (second compound 10 µM, first compound 0.0316 µM): 55%
viability, T/C (second compound 10 µM, first compound 0.1 µM): 42.5%
viability, T/C (second compound 10 µM, first compound 0.316 µM): 40.2%
viability, T/C (second compound 10 µM, first compound 1 µM): 42.3%
viability, T/C (second compound 10 µM, first compound 3.16 µM): 16.3%
viability, T/C (second compound 10 µM, first compound 10 µM): 2.68%

SMILES: CNC(=O)c1ccc(Nc2nc(OC3CCCC3)c3c(-c4ccc5nc(C)oc5c4)c[nH]c3n2)c(OC)c1
viability, T/C (compound 0.0316 µM): 62.2% [middle of 12 runs]
viability, T/C (compound 1 µM): 56.2% [middle of 12 runs]
viability, T/C (compound 3.16 µM): 45.1% [middle of 12 runs]
viability, T/C (compound 10 µM): 36.8% [middle of 12 runs]

pIC50 (curve of compound): 7.07 and 7.23
SMILES: COc1cccc2c1C(=O)c1c(O)c3c(c(O)c1C2=O)CC(O)(C(=O)CO)CC3OC1CC(N)C(O)C(C)O1 (stereo not drawn)
viability, T/C (compound 0.0316 µM): 94.6% and 56.2%
viability, T/C (compound 0.1 µM): 39.9% and 44.2%
viability, T/C (compound 0.316 µM): 22.5% and 26.6%
viability, T/C (compound 1 µM): 11.3%
viability, T/C (compound 3.16 µM): 0.28% and 0.34%
viability, T/C (compound 10 µM): 3.11% and 2.84%
